How the values were obtained:
[1] = test system: pseudotyped VSVs harboring SARS-CoV-2 S (SARS2-Spp); test: microbe, parasite or virus in culture; format: cell-based
[2] = test system: rVSV-SARS-CoV-2-S-GFP; format: cell-based
[3] = Severe acute respiratory syndrome coronavirus 2, 24 h
[4] = Severe acute respiratory syndrome coronavirus 2, Huh-7, 24 h
[5] = Severe acute respiratory syndrome coronavirus 2, MA104
[6] = Severe acute respiratory syndrome coronavirus 2, MA104, 24 h
[7] = Severe acute respiratory syndrome coronavirus 2

Row | Structure (SMILES) | EC50 [1, 3] [µM] | EC50 [1, 4] [µM] | EC90 [1, 5] [µM] | EC50 [1, 6] [µM] | EC50 [1, 7] [µM] | inhibition of SARS2-Spp entry [1] | EC90 [1, 7] [µM] | EC50 (GFP signals) [2] | inhibition of rVSV-SARS-CoV-2-S-GFP infection [2]
1 | CN1CCN([C@@H](c2ccccc2)c2ccc(Cl)cc2)CC1 [(S)-CCZ, (S)-chlorcyclizine] | 11.4 | 9.2 | 11.1 | 4.09 | – | – | – | – | –
2 | O=C(CCCCC1SCC2NC(=O)NC21)NCCOCCOCCN1CCN(C(c2ccc(Cl)cc2)c2ccc(C3(C(F)(F)F)N=N3)cc2)CC1 (stereo not drawn) [CCZ-DB] | – | – | – | – | 12.9 | – | – | – | –
3 | CCN(CC)CCCC(C)Nc1ccnc2cc(Cl)ccc12 (stereo not drawn) [Chloroquine, chloroquine] | 2.07 | 4.38 | 32.3 | 7.65 | – | inhibited | 30.2 | single-digit micromolar range | inhibited
4 | CCOC(=O)[C@H]1O[C@@H]1C(=O)N[C@@H](CC(C)C)C(=O)NCCC(C)C [E-64d] | – | – | – | – | – | inhibited | – | – | –
5 | O=C(CCCC[C@@H]1SC[C@@H]2NC(=O)N[C@@H]21)NCc1ccc(C2(C(F)(F)F)N=N2)cc1 [DB-Ctrl] | – | – | – | – | > 100 | – | – | – | –
6 | CCN1CCN(C(c2ccc(Cl)cc2)c2ccc(Cl)cc2)CC1 [Dichlorcyclizine, dichlorcyclizine] | 2.34 | 3.05 | – | 4.53 | – | – | – | single-digit micromolar range | inhibited
7 | CN(C)C(=O)COC(=O)Cc1ccc(OC(=O)c2ccc(NC(=N)N)cc2)cc1 [Camostat, camostat] | > 100 | > 100 | – | > 100 | – | – | – | – | –
8 | Cc1cc(-c2nc(CN3CCC(C(=O)NCCCN4C[C@H](C)C[C@H](C)C4)CC3)co2)ccc1F [Fluoxazolevir, fluoxazolevir] | 6.82 | 2.64 | 18.5 | 3.86 | – | – | 13.6 | single-digit micromolar range | inhibited
